Results as given in PubChem BioAssay (NCI).
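Growth conditions: 96-well plates. Treatment: test compound, 48 hours, 5 concentrations. Analysis: linear interpolation between bracketing concentrations; unreached endpoints set to highest concentration. TGI marks complete inhibition of growth.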

Legend:
Test in all cases: growth of human tumour cells (NCI), 48 h
SN12C renal = test system: SN12C renal
SNB-75 CNS = test system: SNB-75 CNS
RXF-631 renal = test system: RXF-631 renal
RPMI-8226 leukemia = test system: RPMI-8226 leukemia
LOX IMVI melanoma = test system: LOX IMVI melanoma
SK-OV-3 ovarian = test system: SK-OV-3 ovarian
IGROV1 ovarian = test system: IGROV1 ovarian
UACC-62 melanoma = test system: UACC-62 melanoma
UO-31 renal = test system: UO-31 renal
XF 498 CNS = test system: XF 498 CNS
NCI-H460 lung = test system: NCI-H460 lung
MALME-3M melanoma = test system: MALME-3M melanoma
M14 melanoma = test system: M14 melanoma
OVCAR-5 ovarian = test system: OVCAR-5 ovarian
EKVX NSCLC = test system: EKVX NSCLC
TK-10 renal = test system: TK-10 renal
HCC-2998 colon = test system: HCC-2998 colon
NCI-H23 lung = test system: NCI-H23 lung
DLD-1 colon = test system: DLD-1 colon
786-0 renal = test system: 786-0 renal
CAKI-1 renal = test system: CAKI-1 renal
SF-268 CNS = test system: SF-268 CNS
K-562 leukemia = test system: K-562 leukemia
KM20L2 colon = test system: KM20L2 colon
HL-60(TB) leukemia = test system: HL-60(TB) leukemia
SW-620 colon = test system: SW-620 colon
SK-MEL-5 melanoma = test system: SK-MEL-5 melanoma
NCI-H522 lung = test system: NCI-H522 lung
LXFL 529 NSCLC = test system: LXFL 529 NSCLC
COLO 205 colon = test system: COLO 205 colon
SF-295 CNS = test system: SF-295 CNS
SNB-19 CNS = test system: SNB-19 CNS
OVCAR-4 ovarian = test system: OVCAR-4 ovarian
HT29 colon = test system: HT29 colon
ACHN renal = test system: ACHN renal
CCRF-CEM leukemia = test system: CCRF-CEM leukemia
HCT-15 colon = test system: HCT-15 colon
SNB-78 CNS = test system: SNB-78 CNS
A498 renal = test system: A498 renal
UACC-257 melanoma = test system: UACC-257 melanoma
OVCAR-8 ovarian = test system: OVCAR-8 ovarian
U251 CNS = test system: U251 CNS
RXF 393 renal = test system: RXF 393 renal
DMS 114 small cell lung = test system: DMS 114 small cell lung
SK-MEL-28 melanoma = test system: SK-MEL-28 melanoma
KM12 colon = test system: KM12 colon
MOLT-4 leukemia = test system: MOLT-4 leukemia
SK-MEL-2 melanoma = test system: SK-MEL-2 melanoma
DMS 273 small cell lung = test system: DMS 273 small cell lung
SF-539 CNS = test system: SF-539 CNS
A549 NSCLC = test system: A549 NSCLC
HOP-62 NSCLC = test system: HOP-62 NSCLC
OVCAR-3 ovarian = test system: OVCAR-3 ovarian
NCI-H226 lung = test system: NCI-H226 lung
HOP-92 NSCLC = test system: HOP-92 NSCLC

Cn1c2c([N+](=O)[O-])cccc2c(=O)c2c(O)cc3c(c21)C=CC(C)(C)O3
TGI (SN12C renal): > 100 µM
TGI (SNB-75 CNS): 84.5 µM
TGI (RXF-631 renal): > 100 µM
TGI (RPMI-8226 leukemia): > 100 µM
TGI (LOX IMVI melanoma): > 100 µM
TGI (SK-OV-3 ovarian): > 100 µM
TGI (IGROV1 ovarian): > 100 µM
TGI (UACC-62 melanoma): > 100 µM
TGI (UO-31 renal): > 100 µM
TGI (XF 498 CNS): 45.2 µM
TGI (NCI-H460 lung): > 100 µM
TGI (MALME-3M melanoma): > 100 µM
TGI (M14 melanoma): > 100 µM
TGI (OVCAR-5 ovarian): > 100 µM
TGI (EKVX NSCLC): > 100 µM
TGI (TK-10 renal): > 100 µM
TGI (HCC-2998 colon): > 100 µM
TGI (NCI-H23 lung): > 100 µM
TGI (DLD-1 colon): > 100 µM
TGI (786-0 renal): > 100 µM
TGI (CAKI-1 renal): > 100 µM
TGI (SF-268 CNS): > 100 µM
TGI (K-562 leukemia): > 100 µM
TGI (KM20L2 colon): > 100 µM
TGI (HL-60(TB) leukemia): > 100 µM
TGI (SW-620 colon): > 100 µM
TGI (SK-MEL-5 melanoma): > 100 µM
TGI (NCI-H522 lung): 27.8 µM
TGI (LXFL 529 NSCLC): > 100 µM
TGI (COLO 205 colon): > 100 µM
TGI (SF-295 CNS): 99.5 µM
TGI (SNB-19 CNS): > 100 µM
TGI (OVCAR-4 ovarian): 81 µM
TGI (HT29 colon): > 100 µM
TGI (ACHN renal): > 100 µM
TGI (CCRF-CEM leukemia): > 100 µM
TGI (HCT-15 colon): > 100 µM
TGI (SNB-78 CNS): > 100 µM
TGI (A498 renal): > 100 µM
TGI (UACC-257 melanoma): > 100 µM
TGI (OVCAR-8 ovarian): > 100 µM
TGI (U251 CNS): > 100 µM
TGI (RXF 393 renal): 62.1 µM
TGI (DMS 114 small cell lung): > 100 µM
TGI (SK-MEL-28 melanoma): > 100 µM
TGI (KM12 colon): > 100 µM
TGI (MOLT-4 leukemia): > 100 µM
TGI (SK-MEL-2 melanoma): > 100 µM
TGI (DMS 273 small cell lung): > 100 µM
TGI (SF-539 CNS): 76.2 µM
TGI (A549 NSCLC): > 100 µM

c1ccc2c(c1)c1ccccc1c1n[se]nc21
TGI (SN12C renal): > 100 µM
TGI (SNB-75 CNS): 59 µM
TGI (RXF-631 renal): > 100 µM
TGI (RPMI-8226 leukemia): > 100 µM
TGI (LOX IMVI melanoma): > 100 µM
TGI (SK-OV-3 ovarian): 64.3 µM
TGI (IGROV1 ovarian): > 100 µM
TGI (UACC-62 melanoma): > 100 µM
TGI (UO-31 renal): > 100 µM
TGI (XF 498 CNS): 77.2 µM
TGI (NCI-H460 lung): > 100 µM
TGI (MALME-3M melanoma): > 100 µM
TGI (M14 melanoma): > 100 µM
TGI (OVCAR-5 ovarian): > 100 µM
TGI (EKVX NSCLC): > 100 µM
TGI (TK-10 renal): > 100 µM
TGI (NCI-H23 lung): > 100 µM
TGI (DLD-1 colon): > 100 µM
TGI (786-0 renal): > 100 µM
TGI (CAKI-1 renal): > 100 µM
TGI (SF-268 CNS): > 100 µM
TGI (K-562 leukemia): > 100 µM
TGI (KM20L2 colon): > 100 µM
TGI (HL-60(TB) leukemia): > 100 µM
TGI (SW-620 colon): > 100 µM
TGI (SK-MEL-5 melanoma): > 100 µM
TGI (NCI-H522 lung): > 100 µM
TGI (LXFL 529 NSCLC): 48.6 µM
TGI (COLO 205 colon): > 100 µM
TGI (SF-295 CNS): > 100 µM
TGI (SNB-19 CNS): > 100 µM
TGI (OVCAR-4 ovarian): > 100 µM
TGI (HT29 colon): > 100 µM
TGI (ACHN renal): > 100 µM
TGI (CCRF-CEM leukemia): > 100 µM
TGI (HCT-15 colon): > 100 µM
TGI (SNB-78 CNS): > 100 µM
TGI (A498 renal): 67.1 µM
TGI (UACC-257 melanoma): > 100 µM
TGI (OVCAR-8 ovarian): > 100 µM
TGI (U251 CNS): > 100 µM
TGI (RXF 393 renal): > 100 µM
TGI (DMS 114 small cell lung): > 100 µM
TGI (SK-MEL-28 melanoma): > 100 µM
TGI (KM12 colon): > 100 µM
TGI (MOLT-4 leukemia): > 100 µM
TGI (SK-MEL-2 melanoma): > 100 µM
TGI (DMS 273 small cell lung): > 100 µM
TGI (SF-539 CNS): 92.2 µM
TGI (A549 NSCLC): > 100 µM

O=C1O[C@@H](c2ccccc2)C[C@H]1CN1CCOCC1
TGI (SN12C renal): > 100 µM
TGI (SNB-75 CNS): > 100 µM
TGI (RXF-631 renal): > 100 µM
TGI (RPMI-8226 leukemia): > 100 µM
TGI (LOX IMVI melanoma): > 100 µM
TGI (SK-OV-3 ovarian): > 100 µM
TGI (IGROV1 ovarian): > 100 µM
TGI (UACC-62 melanoma): > 100 µM
TGI (UO-31 renal): > 100 µM
TGI (XF 498 CNS): > 100 µM
TGI (NCI-H460 lung): > 100 µM
TGI (MALME-3M melanoma): > 100 µM
TGI (M14 melanoma): > 100 µM
TGI (OVCAR-5 ovarian): > 100 µM
TGI (EKVX NSCLC): > 100 µM
TGI (HOP-62 NSCLC): > 100 µM
TGI (TK-10 renal): > 100 µM
TGI (HCC-2998 colon): > 100 µM
TGI (OVCAR-3 ovarian): > 100 µM
TGI (NCI-H23 lung): 35.4 µM
TGI (DLD-1 colon): > 100 µM
TGI (NCI-H226 lung): > 100 µM
TGI (786-0 renal): > 100 µM
TGI (CAKI-1 renal): 41.3 µM
TGI (SF-268 CNS): > 100 µM
TGI (K-562 leukemia): > 100 µM
TGI (KM20L2 colon): > 100 µM
TGI (HL-60(TB) leukemia): > 100 µM
TGI (SW-620 colon): > 100 µM
TGI (SK-MEL-5 melanoma): > 100 µM
TGI (NCI-H522 lung): > 100 µM
TGI (HOP-92 NSCLC): > 100 µM
TGI (LXFL 529 NSCLC): > 100 µM
TGI (COLO 205 colon): > 100 µM
TGI (SF-295 CNS): > 100 µM
TGI (OVCAR-4 ovarian): > 100 µM
TGI (HT29 colon): > 100 µM
TGI (ACHN renal): > 100 µM
TGI (CCRF-CEM leukemia): > 100 µM
TGI (HCT-15 colon): > 100 µM
TGI (SNB-78 CNS): > 100 µM
TGI (A498 renal): > 100 µM
TGI (UACC-257 melanoma): > 100 µM
TGI (OVCAR-8 ovarian): > 100 µM
TGI (U251 CNS): > 100 µM
TGI (RXF 393 renal): > 100 µM
TGI (DMS 114 small cell lung): > 100 µM
TGI (SK-MEL-28 melanoma): > 100 µM
TGI (KM12 colon): > 100 µM
TGI (MOLT-4 leukemia): > 100 µM
TGI (SK-MEL-2 melanoma): > 100 µM
TGI (SF-539 CNS): > 100 µM
TGI (A549 NSCLC): > 100 µM
